Measurements as given in patent US7173004B2, “Macrocyclic isoquinoline peptide inhibitors of hepatitis C virus” (Bristol-Myers Squibb Company, priority 2003, dated 2007).

biological target: T1, HCV NS3/4A protease complex, BMS strain (genotype 1a) (UniProt P27958, C1454S/C1711G, species not given/STRAIN_BMS); test: Recombinant HCV NS3/4A protease complex FRET peptide assay, BMS strain; type: biochemical; conditions: NS3/4A BMS strain; activity range symbols
T1 construct: b1001: DNA encoding the recombinant HCV NS3/4A protease complex (amino acids 1027 to 1711) ... a three-lysine solubilizing tail was added at the 3′-end of the NS4A coding region; fused on or other part: Three-lysine solubilising tail at the C-terminus of NS4A; A His tag is implied by the pET21b vector and Ni-NTA purification
Outline: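 Recombinant NS3/4A (aa 1027–1711) from H77C, J4L6S or BMS strains, with C1454S and C1711G mutations and three-lysine tail, expressed in E. coli and Ni-NTA/gel-filtration purified to >90%. Inhibition of cleavage of a FRET peptide substrate measured.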

`CC(C)(C)NC(=O)N[C@H]1CCCCC/C=C\[C@@H]2C[C@@]2(C(=O)NS(=O)(=O)C2CC2)NC(=O)[C@@H]2C[C@@H](Oc3nccc4ccccc34)CN2C1=O` [Compound 126] and `CC(C)(C)CC(C)(C)NC(=O)NC1CCCCCC=CC2CC2(C(=O)NS(=O)(=O)C2CC2)NC(=O)C2CC(Oc3nccc4ccccc34)CN2C1=O` (stereo not shown) [Compound 129] cannot be ordered by IC50: under 50 nM for the first, under 50 nM for the second.

`CCC(C)(C)OC(=O)NC1CCCCCC=CC2CC2(C(=O)NS(=O)(=O)C2CC2)NC(=O)C2CC(Oc3nccc4ccccc34)CN2C1=O` (stereo not shown) [Compound 125] and `CC(=O)C(C)(C)OC(=O)NC1CCCCCC=CC2CC2(C(=O)NS(=O)(=O)C2CC2)NC(=O)C2CC(Oc3nccc4ccccc34)CN2C1=O` (stereo not shown) [Compound 123] cannot be ordered by IC50: under 50 nM for the first, under 50 nM for the second.

`COc1ccc2c(OC3CC4C(=O)NC5(C(=O)NS(=O)(=O)C6CC6)CC5C=CCOCCCC(NC(=O)OC(C)(C)C)C(=O)N4C3)nc(-c3ccc(N(C)C=O)cc3)cc2c1` (stereo not shown) [Compound 114] and `CNc1ccc(-c2cc3cc(OC)ccc3c(OC3CC4C(=O)NC5(C(=O)NS(=O)(=O)C6CC6)CC5C=CCOCCCC(NC(=O)OC(C)(C)C)C(=O)N4C3)n2)cc1` (stereo not shown) [Compound 113] cannot be ordered by IC50: under 50 nM for the first, under 50 nM for the second.

`COc1ccc2c(OC3CC4C(=O)NC5(C(=O)NS(=O)(=O)C6CC6)CC5C=CCCCCCC(NC(=O)OC(C)(C)C)C(=O)N4C3)nccc2c1F` (stereo not shown) [Compound 132] and `COc1cccc2c(OC3CC4C(=O)NC5(C(=O)NS(=O)(=O)C6CC6)CC5C=CCCCCCC(NC(=O)OC(C)(C)C)C(=O)N4C3)nccc12` (stereo not shown) [Compound 133] cannot be ordered by IC50: under 50 nM for the first, under 50 nM for the second.

`O=C(NC1CCCC1)NC1CCCCCC=CC2CC2(C(=O)NS(=O)(=O)C2CC2)NC(=O)C2CC(Oc3nccc4ccccc34)CN2C1=O` (stereo not shown) [Compound 127] and `COc1ccc2c(OC3CC4C(=O)NC5(C(=O)NS(=O)(=O)C6CC6)CC5C=CCCCCCC(NC(=O)NC5CCCC5)C(=O)N4C3)nccc2c1` (stereo not shown) [Compound 136] cannot be ordered by IC50: under 50 nM for the first, under 50 nM for the second.

`COc1ccc2c(OC3CC4C(=O)NC5(C(=O)NS(=O)(=O)C6CC6)CC5C=CCOCCCC(NC(=O)OCC(C)(C)C)C(=O)N4C3)nc(-c3ccccc3)cc2c1` (stereo not shown) [Compound 103] and `COc1ccc2c(OC3CC4C(=O)NC5(C(=O)NS(=O)(=O)C6CC6)CC5C=CCCCOCC(NC(=O)OCC(C)(C)C)C(=O)N4C3)nc(-c3ccccc3)cc2c1` (stereo not shown) [Compound 95] cannot be ordered by IC50: under 50 nM for the first, under 50 nM for the second.

`COc1ccc2c(OC3CC4C(=O)NC5(C(=O)NS(=O)(=O)C6CC6)CC5C=CCCCOCC(NC(=O)OC(C)C)C(=O)N4C3)nccc2c1` (stereo not shown) [Compound 89] and `COc1ccc2c(O[C@@H]3C[C@H]4C(=O)N[C@]5(C(=O)NS(=O)(=O)C6CC6)C[C@H]5/C=C\CCCOC[C@H](NC(=O)OC(C)(C)C)C(=O)N4C3)nccc2c1` [Compound 85, (1S,4R,6S,14S,18R)-[7-cis-4-Cyclopropanesulfonylaminocarbonyl-18-(6-methoxy-isoquinolin-1-yloxy)-2,15-dioxo-12-oxa-3,16-diaza-tricyclo[14.3.0.0^4,6]nonadec-7-en-14-yl]-carbamic acid, tert-butyl ester] cannot be ordered by IC50: under 50 nM for the first, under 50 nM for the second.

`COc1ccc2c(OC3CC4C(=O)NC5(C(=O)NS(=O)(=O)C6CC6)CC5C=CCOCCCC(NC(=O)N5CCNC5=O)C(=O)N4C3)nc(-c3ccccc3)cc2c1` (stereo not shown) [Compound 106] and `COc1ccc2c(OC3CC4C(=O)NC5(C(=O)NS(=O)(=O)C6CC6)CC5C=CCOCCCC(NC(=O)N5CCCC5)C(=O)N4C3)nc(-c3ccccc3)cc2c1` (stereo not shown) [Compound 100] cannot be ordered by IC50: under 50 nM for the first, under 50 nM for the second.

`COc1ccc2c(OC3CC4C(=O)NC5(C(=O)NS(=O)(=O)C6CC6)CC5C=CCCCOCC(NC(=O)OC5CCCC5)C(=O)N4C3)nc(-c3ccc(N(C)C)cc3)cc2c1` (stereo not shown) [Compound 110] and `COc1ccc2c(OC3CC4C(=O)NC5(C(=O)NS(=O)(=O)C6CC6)CC5C=CCCCOCC(NC(=O)N5CCCC5)C(=O)N4C3)nc(-c3ccc(N(C)C)cc3)cc2c1` (stereo not shown) [Compound 111] cannot be ordered by IC50: under 50 nM for the first, under 50 nM for the second.

`COc1ccc2c(OC3CC4C(=O)NC5(C(=O)NS(=O)(=O)C6CC6)CC5C=CCCCCCC(NC(=O)NC(C)(C)C)C(=O)N4C3)nccc2c1` (stereo not shown) [Compound 135] and `COc1ccc2c(OC3CC4C(=O)NC5(C(=O)NS(=O)(=O)C6CC6)CC5C=CCCCSC(C)(C)C(NC(=O)NC(C)(C)C)C(=O)N4C3)nccc2c1` (stereo not shown) [Compound 81] cannot be ordered by IC50: under 50 nM for the first, under 50 nM for the second.

Compared with `COc1ccc2c(OC3CC4C(=O)NC5(C(=O)NS(=O)(=O)C6CC6)CC5C=CCCCSCC(N)C(=O)N4C3)nccc2c1` (stereo not shown) [Compound 117], `COc1ccc2c(O[C@@H]3C[C@H]4C(=O)N[C@]5(C(=O)NS(=O)(=O)C6CC6)C[C@H]5/C=C\CCCSC(C)(C)[C@H](NC(=O)OC(C)(C)C)C(=O)N4C3)nccc2c1` [Compound 80, (1S,4R,6S,14R,18R)-[7-cis-4-Cyclopropanesulfonylaminocarbonyl-13,13-dimethyl-18-(6-methoxyisoquinolin-1-yloxy)-2,15-dioxo-12-thia-3,16-diaza-tricyclo[14.3.0.0^4,6]nonadec-7-en-14-yl]carbamic acid, tert-butyl ester] is lower in IC50: 50 to 500 nM for the first, under 50 nM for the second. The second is the more potent here.

`COc1ccc2c(OC3CC4C(=O)NC5(C(=O)NS(=O)(=O)C6CC6)CC5C=CCCCOCC(NC(=O)OC(C)C)C(=O)N4C3)nc(-c3ccccc3)cc2c1` (stereo not shown) [Compound 96] and `COc1ccc2c(OC3CC4C(=O)NC5(C(=O)NS(=O)(=O)C6CC6)CC5C=CCOCCCC(NC(=O)OC(C)C)C(=O)N4C3)nc(-c3ccccc3)cc2c1` (stereo not shown) [Compound 98] cannot be ordered by IC50: under 50 nM for the first, under 50 nM for the second.

`CC(C)(C)NC(=O)N1CCC/C=C\[C@@H]2C[C@@]2(C(=O)NS(=O)(=O)C2CC2)NC(=O)[C@@H]2C[C@@H](Oc3nccc4ccccc34)CN2C(=O)[C@@H](NC(=O)OC(C)(C)C)C1` [Compound 150] and `CC(C)(C)OC(=O)N[C@H]1CN(S(=O)(=O)c2ccccc2[N+](=O)[O-])CCC/C=C\[C@@H]2C[C@@]2(C(=O)NS(=O)(=O)C2CC2)NC(=O)[C@@H]2C[C@@H](Oc3nccc4ccccc34)CN2C1=O` [Compound 145] cannot be ordered by IC50: under 50 nM for the first, under 50 nM for the second.

`CC1(COC(=O)NC2CCCCCC=CC3CC3(C(=O)NS(=O)(=O)C3CC3)NC(=O)C3CC(Oc4nccc5ccccc45)CN3C2=O)CC1` (stereo not shown) [Compound 122] and `COc1ccc2c(OC3CC4C(=O)NC5(C(=O)NS(=O)(=O)C6CC6)CC5C=CCCCOCC(NC(=O)OC5CCCC5)C(=O)N4C3)nccc2c1` (stereo not shown) [Compound 90] cannot be ordered by IC50: under 50 nM for the first, under 50 nM for the second.

`COc1ccc2c(OC3CC4C(=O)NC5(C(=O)NS(=O)(=O)C6(C)CC6)CC5C=CCCCSCC(NC(=O)OC(C)(C)C)C(=O)N4C3)nccc2c1` (stereo not shown) [Compound 115] and `COc1ccc2c(OC3CC4C(=O)NC5(C(=O)NS(=O)(=O)C6CC6)CC5C=CCCCOCC(NC(=O)OCC(C)(C)C)C(=O)N4C3)nccc2c1` (stereo not shown) [Compound 88] cannot be ordered by IC50: under 50 nM for the first, under 50 nM for the second.

`COc1ccc2c(OC3CC4C(=O)NC5(C(=O)NS(=O)(=O)C6CC6)CC5C=CCOCCCC(NC(=O)NC(C)(C)C)C(=O)N4C3)nc(-c3ccccc3)cc2c1` (stereo not shown) [Compound 102] and `COc1ccc2c(OC3CC4C(=O)NC5(C(=O)NS(=O)(=O)C6CC6)CC5C=CCCCOCC(NC(=O)NC(C)(C)C)C(=O)N4C3)nc(-c3ccc(N(C)C)cc3)cc2c1` (stereo not shown) [Compound 108] cannot be ordered by IC50: under 50 nM for the first, under 50 nM for the second.

`COc1ccc2c(OC3CC4C(=O)NC5(C(=O)NS(=O)(=O)C6CC6)CC5C=CCCCOCC(NC(=O)N5CCCC5)C(=O)N4C3)nc(-c3ccccc3)cc2c1` (stereo not shown) [Compound 93] and `COc1ccc2c(OC3CC4C(=O)NC5(C(=O)NS(=O)(=O)C6CC6)CC5C=CCCCOCC(NC(=O)NC5CCCC5)C(=O)N4C3)nccc2c1` (stereo not shown) [Compound 87] cannot be ordered by IC50: under 50 nM for the first, under 50 nM for the second.
